Patent US20090221568A1, “Synthesis of Inhibitors of FtsZ” (priority 2005, published 2009)
Read-outs that look alike come from different tables or passages of the source.

Experiments:
M. smegmatis = conditions: cited from earlier work
B. subtilis = conditions: cited from earlier work
S. aureus = conditions: cited from earlier work
E. coli FtsZ [1] = target: T1, E. coli FtsZ (Escherichia coli, UniProt P0A9A6); test: FtsZ GTPase assay (malachite green); assay type: biochemical
T1 construct: made in house; host or cells: E. coli BL21(λDE3)
T1 sequence (P0A9A6 whole entry): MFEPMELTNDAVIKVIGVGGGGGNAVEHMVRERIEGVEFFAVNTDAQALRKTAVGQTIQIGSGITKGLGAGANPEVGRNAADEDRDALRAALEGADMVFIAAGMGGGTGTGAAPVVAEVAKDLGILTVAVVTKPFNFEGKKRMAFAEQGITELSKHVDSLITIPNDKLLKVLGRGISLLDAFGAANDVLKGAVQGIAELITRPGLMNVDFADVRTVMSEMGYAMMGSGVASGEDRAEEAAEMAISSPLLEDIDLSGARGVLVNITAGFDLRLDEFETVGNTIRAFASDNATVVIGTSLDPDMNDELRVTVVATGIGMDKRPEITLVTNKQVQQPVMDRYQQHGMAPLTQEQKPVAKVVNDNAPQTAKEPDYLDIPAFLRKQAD
Experimental: GTPase Assay: Untagged E. coli FtsZ was expressed from pET-3Z^+ in BL21(λDE3) cells (RayChaudhuri, D.; Park, J. T. Nature 1992, 359, 251-254) and purified using a two-step ammonium sulfate fractionation (Romberg et al. J. Biol. Chem. 2001, 276, 11743-11753). FtsZ GTPase assay was performed essentially as described by Margalit et al. (Margalit et al. Proc. Natl. Acad. Sci. U.S.A. 2004, 101, 11821-11826). Briefly, 2 μM E. coli FtsZ in polymerization buffer (4-morpholinepropanesulfonic acid, pH 6.5, 50 mM KCl, 5 mM MgCl2) was preincubated with or without varying concentrations of test compounds (in dimethyl sulfoxide, DMSO) such that the DMSO concentrations in the samples were ˜2%. The control tubes received 2% DMSO alone. After a 5-min preincubation at 25° C., the reactions were initiated by adding 0.5 mM GTP. Aliquots were withdrawn after 5, 15 and 25 ininute intervals and quenched with 50 mM EDTA before color development with the malachite green solution [2 volumes malachite green (0.8 mg/ml)/1 volume polyvinyl alcohol (23.2 mg/ml)/1 volume ammonium molybdate (57.2 mg/ml in 2H2O:3HCl)/2 volumes H2O]. IC50 values were determined from the relative slopes of GTP hydrolysis at different inhibitor concentrations compared to the control with DMSO only.

P. aeruginosa = conditions: dash with footnote b = no significant activity; cited from earlier work
E. coli = conditions: dash with footnote b = no significant activity; cited from earlier work
E. coli FtsZ [2] = target: T1, E. coli FtsZ; conditions: value from Margalit et al. 2004 (footnote a); read-out: Inhibition of E. coli FtsZ GTPase activity, IC50; cited from earlier work
bacterial strains = conditions: higher MICs indicate that a strain is becoming resistant; cited from earlier work
[3] = 2 μM E. coli FtsZ, 0.5 mM GTP, pH 6.5, 25° C., read-out: Inhibition of E. coli FtsZ GTPase activity, IC50

O=C1C[C@@H](c2ccccc2)Oc2c(Cc3ccccc3O)c(O)c(Cc3ccccc3O)c(O)c21 (racemic) [Compound 2, (±)-Dichamanetin]
Antimicrobial activities (MICs) M. smegmatis (M. smegmatis): 3.4 µM
Antimicrobial activities (MICs) B. subtilis (B. subtilis): 1.7 µM
Antimicrobial activities (MICs) S. aureus (S. aureus): 1.7 µM
Inhibition of E. coli GTPase activity, in words (E. coli FtsZ [1]): potent inhibitors
IC50 (E. coli FtsZ [1]; [3]): 12.5 ± 0.5 µM

O=C1C[C@@H](c2ccccc2)Oc2c(Cc3cc(Cc4ccccc4O)ccc3O)c(O)c(Cc3cc(Cc4ccccc4O)ccc3O)c(O)c21 (racemic) [Compound 3, (±)-2′″-Hydroxy-5″-benzylisouvarinol-B]
Antimicrobial activities (MICs) P. aeruginosa (P. aeruginosa): 15.4 µM
Antimicrobial activities (MICs) M. smegmatis (M. smegmatis): 3.8 µM
Antimicrobial activities (MICs) B. subtilis (B. subtilis): 2.6 µM
Antimicrobial activities (MICs) S. aureus (S. aureus): 10.7 µM
Antimicrobial activities (MICs) E. coli (E. coli): 2.3 µM
IC50 (E. coli FtsZ [1]): 8.3 ± 0.5 µM
Inhibition of E. coli GTPase activity, in words (E. coli FtsZ [1]): potent inhibitors

CC1(C)CC(=O)c2c(O)c(Cc3ccccc3O)c(O)c(Cc3ccccc3O)c2O1 [5,7-dihydroxy-6,8-bis(2-hydroxybenzyl)-2,2-dimethylchroman-4-one]
IC50 (E. coli FtsZ [1]; FIG. 27 legend, test not named, presumably FtsZ GTPase, read-out: IC50): 21 µM

Oc1ccc(Cl)cc1Cc1cc(Cl)cc(Cc2cc(Cl)ccc2O)c1O [Compound 1, Zantrin Z1, reference compound]
Antimicrobial activities (MICs) P. aeruginosa (P. aeruginosa): 40 µM
Antimicrobial activities (MICs) B. subtilis (B. subtilis): 1.25 µM
Antimicrobial activities (MICs) S. aureus (S. aureus): 2.5 µM
Antimicrobial activities (MICs) E. coli (E. coli): 20 µM
IC50 (E. coli FtsZ [2]): 5 ± 0.5 µM

CC(=O)c1c(O)c(Cc2ccccc2O)c(O)c(Cc2ccccc2O)c1O [Compound 11, 2,4,6-Trihydroxy-3,5-di(2′-hydroxybenzyl)-acetophenone]
Inhibition of E. coli GTPase activity, in words (E. coli FtsZ [1]): much less potent
IC50 (E. coli FtsZ [1]; [3]): 60.4 ± 2.2 µM

CC[C@H]1OC(=O)[C@H](C)[C@@H](O[C@H]2C[C@@](C)(OC)[C@@H](O)[C@H](C)O2)[C@H](C)[C@@H](O[C@@H]2O[C@H](C)C[C@H](N(C)C)[C@H]2O)[C@](C)(O)C[C@@H](C)C(=O)[C@H](C)[C@@H](O)[C@]1(C)O [erythromycin]
effective MIC defined by NCCLS (bacterial strains): 0.4 µM

COc1cccc(OC)c1C(=O)N[C@@H]1C(=O)N2[C@@H]1SC(C)(C)[C@@H]2C(=O)O [methicillin]
effective MIC defined by NCCLS (bacterial strains): 0.8 µM

CN[C@H](CC(C)C)C(=O)N[C@H]1C(=O)N[C@@H](CC(N)=O)C(=O)N[C@H]2C(=O)N[C@H]3C(=O)N[C@H](C(=O)N[C@H](C(=O)O)c4cc(O)cc(O)c4-c4cc3ccc4O)[C@H](O)c3ccc(c(Cl)c3)Oc3cc2cc(c3O[C@@H]2O[C@H](CO)[C@@H](O)[C@H](O)[C@H]2O[C@H]2C[C@](C)(N)[C@H](O)[C@H](C)O2)Oc2ccc(cc2Cl)[C@H]1O [vancomycin]
effective MIC defined by NCCLS (bacterial strains): 5.8 µM
